Results: ChEMBL document CHEMBL1146623, “Two antiviral compounds from the plant Stylogne cauliflora as inhibitors of HCV NS3 protease” (Bioorg Med Chem Lett, 2003)

Key:
NS3 [1] = target: T1, NS3 (Hepatitis C virus, UniProt A3EZJ3); assay: Inhibitory activity evaluated in the HCV NS3 protease assay; set-up: species or system Hepacivirus hominis
NS3 [2] = target: T1, NS3; assay: Inhibitory activity evaluated in the HCV NS3 protease activity assay; set-up: species or system Hepacivirus hominis

T1 sequence (A3EZJ3 whole entry): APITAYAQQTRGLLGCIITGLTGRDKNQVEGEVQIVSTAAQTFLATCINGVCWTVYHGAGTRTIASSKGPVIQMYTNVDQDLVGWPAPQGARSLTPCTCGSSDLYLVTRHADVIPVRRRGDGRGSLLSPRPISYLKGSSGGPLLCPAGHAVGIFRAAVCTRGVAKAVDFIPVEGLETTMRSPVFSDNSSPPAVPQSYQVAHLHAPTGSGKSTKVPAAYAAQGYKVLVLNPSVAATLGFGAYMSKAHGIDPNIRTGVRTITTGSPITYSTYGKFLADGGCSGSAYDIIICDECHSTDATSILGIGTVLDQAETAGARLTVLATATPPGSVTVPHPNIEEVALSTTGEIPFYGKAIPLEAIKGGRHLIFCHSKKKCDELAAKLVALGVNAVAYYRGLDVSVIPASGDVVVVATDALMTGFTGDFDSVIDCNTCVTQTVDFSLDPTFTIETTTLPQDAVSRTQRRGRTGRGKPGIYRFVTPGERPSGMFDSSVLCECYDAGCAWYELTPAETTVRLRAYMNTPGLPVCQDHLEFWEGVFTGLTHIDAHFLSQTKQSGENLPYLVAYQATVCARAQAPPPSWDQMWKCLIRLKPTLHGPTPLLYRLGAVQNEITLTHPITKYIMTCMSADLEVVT

IC50 (NS3 [1]) [nM] | IC50 (NS3 [2]) [nM] | SMILES
800 |  | O=C1OC[C@H]2O[C@@H](Oc3cc(O)c(C(=O)CCc4ccccc4)c(O)c3)[C@H](O)[C@@H](O)[C@@H]2OC(=O)c2cc(O)c(O)c(O)c2-c2c1cc(O)c(O)c2O [THONNINGIANIN B]
 | 300 | O=C1OC[C@H]2O[C@@H](Oc3cc(O)c4c(c3)OC(c3ccccc3)CC4=O)[C@H](O)[C@@H](O)[C@@H]2OC(=O)c2cc(O)c(O)c(O)c2-c2c1cc(O)c(O)c2O (some centres not stated)
